Laboratory results from ChEMBL document CHEMBL5465560, “Selectivity Literature for EUbOPEN Chemogenomic Library” (2024).

How the values were obtained:
[1] = molecular target: T1, Dual specificity protein kinase TTK (Homo sapiens) (UniProt P33981); test: Selectivity interaction (LanthaScreen Eu Kinase Binding Assay) EUB0001632a TTK; details: at 10 µM
T1 sequence (whole entry): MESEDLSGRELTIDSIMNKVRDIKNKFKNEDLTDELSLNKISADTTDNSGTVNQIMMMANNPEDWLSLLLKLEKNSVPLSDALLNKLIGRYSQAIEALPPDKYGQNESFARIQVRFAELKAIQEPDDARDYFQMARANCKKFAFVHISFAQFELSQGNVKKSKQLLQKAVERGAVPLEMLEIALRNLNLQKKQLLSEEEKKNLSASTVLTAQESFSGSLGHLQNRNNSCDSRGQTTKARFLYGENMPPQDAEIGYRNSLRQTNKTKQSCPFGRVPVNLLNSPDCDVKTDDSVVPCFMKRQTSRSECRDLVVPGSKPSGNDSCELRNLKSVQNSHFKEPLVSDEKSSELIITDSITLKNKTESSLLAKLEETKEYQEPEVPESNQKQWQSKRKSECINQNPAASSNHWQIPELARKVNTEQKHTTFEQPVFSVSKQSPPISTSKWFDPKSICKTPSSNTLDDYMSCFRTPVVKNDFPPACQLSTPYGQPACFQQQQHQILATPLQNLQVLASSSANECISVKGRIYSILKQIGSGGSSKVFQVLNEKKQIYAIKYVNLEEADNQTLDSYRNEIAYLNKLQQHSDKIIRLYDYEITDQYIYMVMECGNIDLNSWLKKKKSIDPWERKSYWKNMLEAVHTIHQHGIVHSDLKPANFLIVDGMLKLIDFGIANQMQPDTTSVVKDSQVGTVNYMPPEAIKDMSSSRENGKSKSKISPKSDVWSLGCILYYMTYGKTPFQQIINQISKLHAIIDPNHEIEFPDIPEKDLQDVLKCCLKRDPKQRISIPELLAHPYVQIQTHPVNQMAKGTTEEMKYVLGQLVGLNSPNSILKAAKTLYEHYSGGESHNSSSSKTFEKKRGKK

[2] = molecular target: T2, Bromodomain-containing protein 1 (Homo sapiens) (UniProt O95696); test: Selectivity interaction (Human bromodomain panel (DSF assay)) EUB0000233b BRD1
T2 sequence (whole entry): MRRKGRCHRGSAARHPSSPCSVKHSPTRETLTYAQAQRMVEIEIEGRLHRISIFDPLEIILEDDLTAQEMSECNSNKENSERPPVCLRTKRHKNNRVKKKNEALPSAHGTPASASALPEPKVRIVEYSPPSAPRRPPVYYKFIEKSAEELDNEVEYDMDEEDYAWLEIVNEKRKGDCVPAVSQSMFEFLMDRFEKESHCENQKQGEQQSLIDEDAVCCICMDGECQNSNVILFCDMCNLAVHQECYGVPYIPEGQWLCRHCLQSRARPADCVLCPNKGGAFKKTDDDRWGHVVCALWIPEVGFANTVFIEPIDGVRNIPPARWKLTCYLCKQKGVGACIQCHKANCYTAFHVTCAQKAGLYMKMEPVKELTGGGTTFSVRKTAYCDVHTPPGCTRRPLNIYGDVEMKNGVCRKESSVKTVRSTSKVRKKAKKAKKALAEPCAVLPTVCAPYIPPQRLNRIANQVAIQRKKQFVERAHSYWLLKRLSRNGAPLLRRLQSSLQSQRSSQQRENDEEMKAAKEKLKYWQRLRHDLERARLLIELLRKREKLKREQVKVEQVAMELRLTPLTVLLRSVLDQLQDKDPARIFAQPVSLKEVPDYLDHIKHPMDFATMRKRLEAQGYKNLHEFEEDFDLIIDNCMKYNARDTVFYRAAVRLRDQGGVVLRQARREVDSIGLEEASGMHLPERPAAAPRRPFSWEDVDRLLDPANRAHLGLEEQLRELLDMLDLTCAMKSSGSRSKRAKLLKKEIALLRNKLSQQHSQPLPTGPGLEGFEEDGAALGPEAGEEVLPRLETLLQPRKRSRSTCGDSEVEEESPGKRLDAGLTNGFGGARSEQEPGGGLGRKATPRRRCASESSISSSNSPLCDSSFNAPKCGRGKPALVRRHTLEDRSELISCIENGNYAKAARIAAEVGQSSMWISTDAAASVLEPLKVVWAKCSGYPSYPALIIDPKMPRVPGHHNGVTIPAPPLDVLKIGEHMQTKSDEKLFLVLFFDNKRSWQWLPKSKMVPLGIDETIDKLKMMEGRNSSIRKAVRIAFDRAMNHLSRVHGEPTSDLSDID

[3] = molecular target: Serine/threonine-protein kinase 32A (Homo sapiens) (UniProt Q8WU08); test: Selectivity interaction (KinomeScan (DiscoverX)) EUB0000666a STK32A; details: at 10 µM
[4] = molecular target: Serine/threonine-protein kinase SIK2 (Homo sapiens) (UniProt Q9H0K1); test: Selectivity interaction (KinomeScan (DiscoverX)) EUB0000695a SIK2; details: at 100 nM
[5] = molecular target: Mitogen-activated protein kinase kinase kinase kinase 4 (Homo sapiens, UniProt O95819); test: Selectivity interaction (KinomeScan (DiscoverX)) EUB0000655a MAP4K4; details: at 10 µM
[6] = molecular target: Cyclin-dependent kinase 16 (Homo sapiens) (UniProt Q00536); test: Selectivity interaction (KinomeScan (DiscoverX)) EUB0000229b CDK16; details: at 10 µM
[7] = molecular target: T3, Serine/threonine-protein kinase BRSK1 (Homo sapiens) (UniProt Q8TDC3); test: Selectivity interaction (KinomeScan (DiscoverX)) EUB0000618a BRSK1; details: at 10 µM
T3 sequence (whole entry): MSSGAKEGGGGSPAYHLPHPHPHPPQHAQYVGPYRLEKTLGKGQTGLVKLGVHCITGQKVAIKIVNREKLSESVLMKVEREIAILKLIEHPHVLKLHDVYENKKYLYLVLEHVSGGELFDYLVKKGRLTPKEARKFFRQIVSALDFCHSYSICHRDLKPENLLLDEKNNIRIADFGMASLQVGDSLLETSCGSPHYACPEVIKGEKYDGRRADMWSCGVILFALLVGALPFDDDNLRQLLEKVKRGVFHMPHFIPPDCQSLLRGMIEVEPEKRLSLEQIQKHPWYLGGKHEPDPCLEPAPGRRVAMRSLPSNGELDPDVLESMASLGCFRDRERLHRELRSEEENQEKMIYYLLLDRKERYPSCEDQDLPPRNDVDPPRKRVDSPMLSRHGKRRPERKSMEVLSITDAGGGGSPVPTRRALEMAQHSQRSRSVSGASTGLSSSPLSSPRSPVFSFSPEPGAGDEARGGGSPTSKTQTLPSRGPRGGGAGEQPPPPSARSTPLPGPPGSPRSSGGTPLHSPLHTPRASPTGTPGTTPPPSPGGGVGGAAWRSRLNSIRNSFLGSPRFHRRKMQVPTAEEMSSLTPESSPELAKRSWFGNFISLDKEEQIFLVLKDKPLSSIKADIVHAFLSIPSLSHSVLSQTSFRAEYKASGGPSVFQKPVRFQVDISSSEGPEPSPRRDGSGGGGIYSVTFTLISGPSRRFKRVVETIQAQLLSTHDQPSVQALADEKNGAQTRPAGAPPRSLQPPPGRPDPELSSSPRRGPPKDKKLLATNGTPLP

Chain of Cyclin-dependent kinase 16 (Homo sapiens) (Q00536 whole entry): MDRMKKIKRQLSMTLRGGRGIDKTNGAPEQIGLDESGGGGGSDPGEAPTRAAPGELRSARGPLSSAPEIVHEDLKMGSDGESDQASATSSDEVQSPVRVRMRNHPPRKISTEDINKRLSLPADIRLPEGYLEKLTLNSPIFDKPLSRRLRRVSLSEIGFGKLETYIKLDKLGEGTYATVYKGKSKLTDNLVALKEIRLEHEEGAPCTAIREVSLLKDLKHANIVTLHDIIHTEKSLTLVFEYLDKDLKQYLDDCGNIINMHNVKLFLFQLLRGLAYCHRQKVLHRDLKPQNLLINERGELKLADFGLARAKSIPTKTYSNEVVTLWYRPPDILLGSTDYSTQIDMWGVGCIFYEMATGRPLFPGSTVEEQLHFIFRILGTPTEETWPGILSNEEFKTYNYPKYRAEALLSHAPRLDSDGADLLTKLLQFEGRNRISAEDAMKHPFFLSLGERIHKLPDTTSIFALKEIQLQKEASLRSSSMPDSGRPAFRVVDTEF
Chain of Serine/threonine-protein kinase SIK2 (Homo sapiens) (Q9H0K1 whole entry, looked up): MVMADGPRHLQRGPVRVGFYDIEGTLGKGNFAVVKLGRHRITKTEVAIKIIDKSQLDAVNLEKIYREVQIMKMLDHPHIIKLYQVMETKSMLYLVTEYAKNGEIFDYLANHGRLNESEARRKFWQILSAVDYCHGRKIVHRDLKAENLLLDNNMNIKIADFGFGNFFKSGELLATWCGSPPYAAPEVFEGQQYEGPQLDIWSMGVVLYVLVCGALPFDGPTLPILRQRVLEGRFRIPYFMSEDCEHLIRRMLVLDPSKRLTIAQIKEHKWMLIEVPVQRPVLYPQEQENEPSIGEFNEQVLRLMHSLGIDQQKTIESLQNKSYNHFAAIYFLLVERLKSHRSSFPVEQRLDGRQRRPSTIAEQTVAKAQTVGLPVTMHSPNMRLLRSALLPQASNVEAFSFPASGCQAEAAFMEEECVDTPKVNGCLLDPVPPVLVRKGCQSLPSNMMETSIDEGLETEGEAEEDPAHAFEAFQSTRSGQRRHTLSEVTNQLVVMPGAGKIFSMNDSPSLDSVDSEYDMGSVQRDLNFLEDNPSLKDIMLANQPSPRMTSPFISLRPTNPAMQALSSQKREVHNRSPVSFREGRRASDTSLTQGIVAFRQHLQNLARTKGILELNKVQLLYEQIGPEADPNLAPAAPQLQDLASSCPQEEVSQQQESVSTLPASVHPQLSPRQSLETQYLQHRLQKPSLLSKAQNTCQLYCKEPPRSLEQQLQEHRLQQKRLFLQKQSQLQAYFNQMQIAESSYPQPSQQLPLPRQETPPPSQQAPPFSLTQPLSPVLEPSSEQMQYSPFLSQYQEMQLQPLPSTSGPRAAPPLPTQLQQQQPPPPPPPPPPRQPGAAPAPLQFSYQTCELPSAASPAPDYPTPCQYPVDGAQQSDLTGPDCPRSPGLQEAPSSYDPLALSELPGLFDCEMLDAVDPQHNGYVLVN
Chain of Mitogen-activated protein kinase kinase kinase kinase 4 (O95819 2-1239 limits assumed): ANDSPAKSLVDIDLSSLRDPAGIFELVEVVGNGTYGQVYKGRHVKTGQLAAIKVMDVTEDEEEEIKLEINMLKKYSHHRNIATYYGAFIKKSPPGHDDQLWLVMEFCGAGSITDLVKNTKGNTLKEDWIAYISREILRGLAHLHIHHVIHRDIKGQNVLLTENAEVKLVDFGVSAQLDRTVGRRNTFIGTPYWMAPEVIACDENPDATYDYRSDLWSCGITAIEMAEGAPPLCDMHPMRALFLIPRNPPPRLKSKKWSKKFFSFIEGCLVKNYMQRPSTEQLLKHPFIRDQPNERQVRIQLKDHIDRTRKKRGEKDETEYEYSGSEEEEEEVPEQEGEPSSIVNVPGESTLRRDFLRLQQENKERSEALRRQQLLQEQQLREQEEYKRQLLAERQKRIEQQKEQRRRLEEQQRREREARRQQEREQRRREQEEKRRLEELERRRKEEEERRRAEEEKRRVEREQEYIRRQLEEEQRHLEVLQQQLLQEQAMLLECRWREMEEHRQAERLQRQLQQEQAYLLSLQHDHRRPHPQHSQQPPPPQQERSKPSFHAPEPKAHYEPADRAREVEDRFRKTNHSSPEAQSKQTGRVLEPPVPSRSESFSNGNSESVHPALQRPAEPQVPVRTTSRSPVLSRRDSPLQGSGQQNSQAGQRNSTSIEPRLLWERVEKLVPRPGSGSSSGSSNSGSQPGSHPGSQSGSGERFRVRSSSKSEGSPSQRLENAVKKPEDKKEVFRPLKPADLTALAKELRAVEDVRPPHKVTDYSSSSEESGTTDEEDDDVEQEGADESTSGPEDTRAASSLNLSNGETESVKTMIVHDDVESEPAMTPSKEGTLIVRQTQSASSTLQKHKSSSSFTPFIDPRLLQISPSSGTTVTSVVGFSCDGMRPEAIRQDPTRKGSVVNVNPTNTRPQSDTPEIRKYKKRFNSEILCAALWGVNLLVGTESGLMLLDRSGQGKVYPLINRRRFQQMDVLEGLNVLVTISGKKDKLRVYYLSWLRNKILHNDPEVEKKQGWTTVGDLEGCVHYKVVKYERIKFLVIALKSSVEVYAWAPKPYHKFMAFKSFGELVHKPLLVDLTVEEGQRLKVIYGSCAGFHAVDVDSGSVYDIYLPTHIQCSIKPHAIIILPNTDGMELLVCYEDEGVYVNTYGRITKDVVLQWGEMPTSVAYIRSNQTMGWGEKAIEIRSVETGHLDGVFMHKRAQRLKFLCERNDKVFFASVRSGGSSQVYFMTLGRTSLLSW
Chain of Serine/threonine-protein kinase 32A (Homo sapiens) (Q8WU08 whole entry): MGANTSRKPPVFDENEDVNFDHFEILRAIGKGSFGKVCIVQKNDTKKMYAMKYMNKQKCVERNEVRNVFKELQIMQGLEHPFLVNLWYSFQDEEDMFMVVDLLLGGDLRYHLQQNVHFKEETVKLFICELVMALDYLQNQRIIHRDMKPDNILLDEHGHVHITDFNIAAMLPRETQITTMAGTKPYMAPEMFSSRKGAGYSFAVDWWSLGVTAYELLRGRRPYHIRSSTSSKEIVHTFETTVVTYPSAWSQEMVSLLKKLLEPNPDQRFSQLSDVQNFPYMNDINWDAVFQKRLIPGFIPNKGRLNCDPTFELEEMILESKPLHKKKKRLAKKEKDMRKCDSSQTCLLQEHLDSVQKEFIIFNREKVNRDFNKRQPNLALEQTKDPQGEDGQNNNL

## Cn1cc(-n2cnc3c(NCc4nc5cc(Cl)c(Cl)cc5[nH]4)nc(N4CCOCC4)nc32)cn1
[1]
  % of inhibition: -54.1%

## CN(C)CCCOc1ccc(-c2cc(NCCCn3cccn3)nc(S(C)(=O)=O)n2)cc1
[2]
  dTM: < 2 K

## O=C(NOC[C@H](O)CO)c1ccc(F)c(F)c1Nc1ccc(I)cc1F
[3]
  % of control: 80%

## Cc1cc(F)c(C(=O)Nc2cccc(-c3nncn3C(C)C)n2)cc1-n1cnc(C2CC2)c1
[4]
  % of control: 100%

## CN(C)CCOc1ccc(-c2nc(-c3ccncc3)c(-c3ccc4c(c3)CC/C4=N\O)[nH]2)cc1
[5]
  % of control: 27%

## COc1cc(N(C)c2ccnc3ccc(C(F)(F)F)cc23)cc(OC)c1OC
[6]
  % binding: 85%

## O[C@H]1CC[C@H](Nc2ncc3nc(Nc4c(F)cc(F)cc4F)n([C@H]4CCOC4)c3n2)CC1
[7]
  % of control: 86%
